Experimental data published in BindingDB's records for doi:10.1074/jbc.M501367200 (Berlex Biosciences, 2005).

Target: T1, 3-phosphoinositide-dependent protein kinase 1 (Homo sapiens, UniProt O15530)
T1 sequence (O15530 whole entry): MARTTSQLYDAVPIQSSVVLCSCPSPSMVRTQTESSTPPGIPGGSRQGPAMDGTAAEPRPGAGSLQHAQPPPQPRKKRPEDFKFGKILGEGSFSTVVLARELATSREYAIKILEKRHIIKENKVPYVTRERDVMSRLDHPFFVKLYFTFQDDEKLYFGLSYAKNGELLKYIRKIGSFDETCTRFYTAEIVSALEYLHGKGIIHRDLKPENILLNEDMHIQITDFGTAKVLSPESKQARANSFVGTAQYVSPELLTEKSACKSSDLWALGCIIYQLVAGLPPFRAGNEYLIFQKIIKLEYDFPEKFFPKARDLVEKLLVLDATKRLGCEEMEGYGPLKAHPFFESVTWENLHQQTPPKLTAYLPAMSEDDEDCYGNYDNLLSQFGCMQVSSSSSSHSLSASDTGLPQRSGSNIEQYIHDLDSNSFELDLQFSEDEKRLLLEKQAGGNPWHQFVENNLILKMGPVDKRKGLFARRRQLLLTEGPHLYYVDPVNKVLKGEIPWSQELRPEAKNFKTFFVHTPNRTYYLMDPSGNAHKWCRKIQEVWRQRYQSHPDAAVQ
Assay: PDK1-mediated AKT2 Activation Assay (cAKT2 33P-SPA)
Settings: pH 7.2; 22 °C
Protocol: The coupled assay can detect inhibitors of AKT2 activation, as well as direct inhibitors of PDK1 or AKT2. Inactive AKT2 is activated in situ by incubating with PDK1 and PtdIns-3, 4-P2 in the presence of compound, 33P-ATP, and a biotinylated peptide substrate for AKT2. The peptide is captured on streptavidin-coated SPA beads for detection.

| Compound | IC50 |
| --- | --- |
| O=C(Nc1cccc(Nc2ncc(Br)c(NCCc3c[nH]cn3)n2)c1)N1CCCC1 [N-{3-[(5-bromo-4-{[2-(1H-imidazol-4-yl)ethyl]amino}pyrimidin-2-yl)amino]phenyl}pyrrolidine-1-carboxamide] | 12 nM |
| O=C(NCCCNc1nc(Nc2cccc(NC(=O)N3CCCC3)c2)ncc1I)c1cccs1 [N-{3-[(5-iodo-4-{[3-(thiophen-2-ylformamido)propyl]amino}pyrimidin-2-yl)amino]phenyl}pyrrolidine-1-carboxamide] | 6 nM |
